Data on one molecule can be found in US20100137394A1, “PYRAZOLE INHIBITORS OF WNT SIGNALING” (Grenentech, Inc., priority 2007, published 2010).

The assay relates to Wnt pathway signaling. The assay can be described thus: Wnt Assay (Super8xTopflash reporter assay). It counts as cell-based. To be noted: 10T1/2 Super8xTopflash reporter cell line, Wnt3a in medium, luciferase signal read after 20-24 h; read-out: IC50, inhibition of Wnt pathway signaling activity. How it is done: 10T1/2 Super8xTopflash reporter cell line was generated by stable transfection of a Super8xTopflash reporter plasmid containing 8 tandem repeats of TCF4 binding sites upstream of Luciferase gene. Cells were seeded at 20 K/well density (in normal growth medium with 10% FBS and 0.4 mg/ml G418) in white 96-well plates with clear bottom (BD Falcon Microtest Optilux plate, Ref. 353947) and grown for 20-24 hours. Fesh growth medium was prepared without G418 and with appropriate Wnt3a concentration (concentration that gave 40-50% of maximum activation based on the dose-response curve performed for each new batch of protein; typically ˜0.1 ug/ml).
Old medium was removed from the 96-well plate, which was gently blotted on paper towel, then all relevant wells were replenished with fresh medium containing Wnt (100 ul/well).
The wells with highest compound concentrations (usually 10 or 30 uM) were filled separately with 150 ul of prepared medium containing both Wnt3a and the test compounds. Using a multichannel pipetman, 50 ul was drawn from these wells and dispensed and mixed gently into the next row of wells to achieve 1:3 dilution of compounds. […]
After 20-24 h the cells were lysed and the luciferase signal was read using Perkin Elmer luclite assay system, Cat. #6016911). […] Approximately 15 min later the plates were read on a TopCount machine.
(In general: A reporter such as luciferase makes a cellular process visible.)

As usually defined, the IC50 is the concentration needed to halve the response being measured. `COc1ccc(CC(=O)N2CCC(c3ccc(NS(C)(=O)=O)cc3)=N2)cc1OC` [compound 12]: the half-maximal inhibitory concentration (IC50) amounted to 218 nM.
